In paper PMC9823097, “Dysregulation of PRMT5 in chronic lymphocytic leukemia promotes progression with high risk of Richter’s transformation” (Nature Communications, 2023):
Where two headings read alike, the source gives them in different places.

Assays:
RL = experiment: Anti-proliferative activity, MTS assay, RL; format: cell-based; settings: Homo sapiens, DLBCL, read-out: PRT382 IC50 (anti-proliferative)
Description: (§1) Cell proliferation was assessed via MTS (3-[4,5-dimethylthiazol-2-yl]-5-[3-carboxymethoxyphenyl]-2-[4-sulfophenyl]-2H-tetrazolium) assay (Sigma), using the tetrazolium dye […]. Cell apoptosis was evaluated by Annexin V-FITC or PE and propidium iodide (PI) staining using FC500 cytometer (Beckman-Coulter, Indianapolis, IN) following the manufacturer’s procedure (BD Pharmingen, Billerica, MA)[55]. For cell cycle analysis, cells were fixed with cold ethanol overnight and then stained before analysis with 30 μg/mL propidium iodide (Invitrogen) and 200 μg/mL RNase (Sigma-Aldrich) in 0.1 % v/v Triton X-100 (Sigma-Aldrich). Cell cycle data analysis was performed using ModFit LT software (Verity Software House, Topsham, ME).

U-2932 = experiment: Anti-proliferative activity, MTS assay, U-2932; format: cell-based; settings: Homo sapiens, U2932, DLBCL, read-out: PRT382 IC50 (anti-proliferative)
Description: as §1

[1] = target: 38 other methyltransferases (e.g DNMTs, MLL1-4 complexes, EZH1 and EZH2 complexes, NRMTs, NSD, SUVs, SMYs, SETs, PRDM9), and other members of the PRMT family; experiment: Methyltransferase selectivity panel, 3H-SAM radioligand with filtration binding; format: biochemical
Description: For in vitro assays, the compound was stored in a 10 mM solution in DMSO. For in vivo assays, PRT382 was dissolved in a 0.5% methylcellulose, 0.1% tween solution, and administered as oral gavage. For Pharmacokinetic studies, PRT382 was formulated in 0.5% carboxymethylcellulose sodium salt + 0.5%Tween80 as a 1 mg/mL suspension for 10 mg/kg and was administered in a 10 mL/kg dose volume by oral gavage to CD-1 mice. Blood was collected at various time points after dosing into EDTA-K2 tubes, placed on ice, and stored at −80 °C prior to analysis by LC-MS/MS. For biochemical potency and selectivity, PRT382 was solubilized in 100% DMSO and diluted serially threefold. For assessment of selectivity, enzyme activity against a panel of 37 methyltransferases was evaluated using 3H-SAM as a radioligand probe with filtration binding. PRT382 was tested in duplicate at a final concentration of 10 µM. The percent of enzyme activity relative to DMSO control condition was determined for each enzyme.

[2] = system: Granta-519 lymphoma cell line; experiment: Reducing sDMA assay (western blot of cellular sDMA) in Granta-519; format: cell-based; settings: for sDMA signal normalized to β-Actin and DMSO control: DMSO = 100
Description: For western blot analysis of Cellular sDMA in Granta-519, one day before the experiment, Granta-519 cells were passaged to a density of 0.5 × 10^6 cells/ml. The next day, Granta-519 cells were spun down at 1500 rpm for 4 min, resuspended in fresh medium at 0.5E6 cells/ml and 3 mL of culture (1.5E6 cells) were seeded into a six-well plate. Eight-point, threefold serial dilutions of compound working stocks were added to cells (3 µl, 1:1000 dilution, DMSO concentration was 0.1%; final top concentration at 1 µM) and incubated for 3 days. Cells incubated with DMSO was used as vehicle control. Cells were harvested 3 days later, resuspended in 15 µL PBS, lysed in 4% SDS, and homogenized by passing through homogenizer column (Omega Biotek, Catalog #: HCR003). Total protein concentrations were determined by BCA assay (ThermoFisher Scientific, Catalog #: 23225). Lysates were mixed with 5× Laemmli buffer and boiled for 5 min. Forty micrograms of total protein was separated on SDS-PAGE gels (Bio-Rad, catalog #: 4568083, 4568043), transferred to PVDF membrane, and blocked with 5% dry milk (Bio-Rad, Catalog #: 1706404) in TBS with 0.1% v/v Tween20 (TBST) for 1 h at room temperature (RT), and incubated with primary antibodies (sDMA: Cell signaling, Catalog #: 13222, 1:3,000; β-actin: sigma, Catalog #: A2228, 1:5000) in 5% dry milk in TBST at 4 °C overnight. The next day, membranes were washed with TBST, 5 × 5 min, and incubated with HRP conjugated seconded antibody (GE Healthcare; Catalog #: NA9341 ML, NA931-1ML; 1:5000) for 2 hours at RT, followed by 5 × 5 min washes with TBST, and incubation with ECL substrates (Bio-Rad, Catalog #: 1705061, 1705062). The chemiluminescent signal was captured with Fluochem HD2 imager (Proteinsimple). SmD3me2s bands were quantified by ImageJ. Signals were normalized to β-Actin and DMSO control. IC50 values were calculated using Graphpad Prism (v9.2.0) ([Inhibitor] vs. normalized response – Variable slope).

[3] = system: leukemia and lymphoma cell lines; experiment: Proliferation of a panel of leukemia and B-lymphoma cell lines, 72 h, MTS assay; format: cell-based; settings: for IC50: CCMCL-1, JVM-2, U-2932, RL, and KARPAS-422, read-out: Anti-proliferative IC50 values, range over cell lines
Description: as §1

CON=c1nc[nH]c2c1ccn2[C@@H]1O[C@H]([C@H](O)c2ccc(Cl)c(Cl)c2)[C@@H](O)[C@H]1O.Cl [PRT382, (2 R,3 S,4 R,5 R)-2-[(R)-(3,4-dichlorophenyl)-hydroxy-methyl]-5-[(4Z)-4-methoxyimino-1H-pyrrolo[2,3-d]pyrimidin-7-yl]tetrahydrofuran-3,4-diol hydrochloride]
IC50 (RL): 16 nM
IC50 (U-2932): 12 nM
IC50 ([1]; 38 other methyltransferases and other PRMT family members, read-out: IC50 against other methyltransferases): > 1000 nM
inhibition of other tested methyltransferases ([1]; PRT382 at 10 uM): ≤ 20%
sDMA signal normalized to β-Actin and DMSO control ([2]; Conc. 0.000457247 µM): 88.6989
sDMA signal normalized to β-Actin and DMSO control ([2]; Conc. 0.00137174 µM): 97.8569
sDMA signal normalized to β-Actin and DMSO control ([2]; Conc. 0.00411523 µM): 93.6002
sDMA signal normalized to β-Actin and DMSO control ([2]; Conc. 0.0123457 µM): 75.2291
sDMA signal normalized to β-Actin and DMSO control ([2]; Conc. 0.037037 µM): 39.1378
sDMA signal normalized to β-Actin and DMSO control ([2]; Conc. 0.111111 µM): 15.0036
sDMA signal normalized to β-Actin and DMSO control ([2]; Conc. 0.333333 µM): 6.086
sDMA signal normalized to β-Actin and DMSO control ([2]; Conc. 1 µM): 6.863
IC50 ([2]; Homo sapiens, 72 h, Granta-519, 3 days): 27 nM
proliferation relative to DMSO (=1), Figure 6F ([3]; CCMCL, 1e-9 M): 0.94
proliferation relative to DMSO (=1), Figure 6F ([3]; CCMCL, 1e-8 M): 0.93
proliferation relative to DMSO (=1), Figure 6F ([3]; CCMCL, 1e-7 M): 0.55
proliferation relative to DMSO (=1), Figure 6F ([3]; CCMCL, 1e-6 M): 0.13
proliferation relative to DMSO (=1), Figure 6F ([3]; CCMCL, 1e-5 M): 0.12
IC50 ([3]; earlier manuscript text quoted in the peer review file): 10 to 100 nM
IC50 [3]: 10 to 500 nM
proliferation relative to DMSO (=1), Figure 6F ([3]; Jeko, 1e-9 M): 1
proliferation relative to DMSO (=1), Figure 6F ([3]; Jeko, 1e-8 M): 0.98
proliferation relative to DMSO (=1), Figure 6F ([3]; Jeko, 1e-7 M): 0.96
proliferation relative to DMSO (=1), Figure 6F ([3]; Jeko, 1e-6 M): 0.13
proliferation relative to DMSO (=1), Figure 6F ([3]; Jeko, 1e-5 M): 0.14
proliferation relative to DMSO (=1), Figure 6F ([3]; Pfeiffer, 1e-9 M): 0.99
proliferation relative to DMSO (=1), Figure 6F ([3]; Pfeiffer, 1e-8 M): 1
proliferation relative to DMSO (=1), Figure 6F ([3]; Pfeiffer, 1e-7 M): 0.76
proliferation relative to DMSO (=1), Figure 6F ([3]; Pfeiffer, 1e-6 M): 0.18
proliferation relative to DMSO (=1), Figure 6F ([3]; Pfeiffer, 1e-5 M): 0.22
proliferation relative to DMSO (=1), Figure 6F ([3]; SU-DHL-4, 1e-9 M): 1
proliferation relative to DMSO (=1), Figure 6F ([3]; SU-DHL-4, 1e-8 M): 1
proliferation relative to DMSO (=1), Figure 6F ([3]; SU-DHL-4, 1e-7 M): 0.79
proliferation relative to DMSO (=1), Figure 6F ([3]; SU-DHL-4, 1e-6 M): 0.13
proliferation relative to DMSO (=1), Figure 6F ([3]; SU-DHL-4, 1e-5 M): 0.15
